These results are taken from ChEMBL document CHEMBL1201862, “PubChem BioAssay data set” (2004).

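Each compound was tested at five concentrations against cells in 96-well plates for 48 hours. GI50 marks 50% less growth.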 Activity calls are given as the source filed them. Cut-off read from the data, not from the text of the source: active = GI50 up to about 1.1 µM and inactive = higher. Bounds are passed on as bounds.

Test systems include HCC 2998; HL-60; NCI-H23; NCI-H460; HCT-116; RPMI-8226; HCT-15; UO-31; SK-MEL-28; U-251; HOP-62; SN12C; OVCAR-5; SK-MEL-2; M14; CCRF-CEM.
Assay in all cases: NCI anticancer screen, dose series, 48 h

Turning to `CC1=C(C(=O)Nc2ccccc2C)C(c2ccccc2C)C(C(=O)Nc2ccccc2C)=C(C)N1`, the GI50 in the assay on HCC 2998 was 18.5 µM (inactive); in the assay on HL-60, 17 µM (inactive); in the assay on NCI-H23, 21.5 µM (inactive); with NCI-H460 it was 22.6 µM (inactive); in the assay with HCT-116 it was 20.4 µM (inactive); in the assay with RPMI-8226 it was 24 µM (inactive). In addition, the GI50 in the assay with HCT-15 is 18.7 µM; with UO-31, 14.5 µM (inactive); in the assay with SK-MEL-28, 19.9 µM (inactive); in the assay on U-251 it was 19.5 µM (inactive); in the assay with HOP-62 it was 25.2 µM (inactive); with SN12C, 18 µM (inactive). Also, the GI50 with OVCAR-5 is 23.3 µM (inactive); in the assay with SK-MEL-2 it was 18.7 µM (inactive).

`C[N+]1=c2c3cccc4cccc(c(=O)n2CCC1)c43`: the GI50 with HL-60 is 4.36 µM (inactive); with NCI-H23, 19 µM (inactive); with NCI-H460, 18.2 µM (inactive); in the assay on HCT-116 it was 16.1 µM (inactive); with RPMI-8226 it was 19.6 µM (inactive); with HCT-15 it was 35.6 µM. Moreover, the GI50 in the assay with M14 is 17.2 µM (inactive); in the assay with UO-31, 17.9 µM (inactive); in the assay with SK-MEL-28, 19.4 µM (inactive); in the assay with U-251 it was 29.9 µM (inactive); with HOP-62 it was 31 µM (inactive); in the assay with SN12C it was 21 µM (inactive). Besides, the GI50 in the assay with OVCAR-5 is 17.8 µM (inactive); with SK-MEL-2, 16.6 µM (inactive); in the assay on CCRF-CEM it was 3.13 µM (inactive).

In the case of `O=C(c1ccccc1)C1OC12C(=O)Nc1c(Cl)cc(Cl)cc12` (stereo not given), the GI50 in the assay with HCC 2998 was > 92.3 µM (inactive); with HL-60, 16.4 µM (inactive); with NCI-H23, 58.2 µM (inactive); in the assay with NCI-H460, 30.3 µM (inactive); with HCT-116, 23.7 µM (inactive); in the assay with RPMI-8226, 47.5 µM (inactive). Also, the GI50 in the assay with HCT-15 is 24.3 µM; in the assay with M14, 31.5 µM (inactive); in the assay on UO-31 it was > 57.1 µM (inactive); in the assay on SK-MEL-28, > 100 µM (inactive); in the assay on U-251 it was 41.5 µM (inactive); in the assay with HOP-62, > 55.2 µM (inactive). Further, the GI50 in the assay with SN12C was 27.2 µM (inactive); in the assay with OVCAR-5, > 100 µM (inactive); with SK-MEL-2 it was 99.1 µM (inactive); in the assay on CCRF-CEM it was 8.65 µM (inactive).

In the case of `[O-][Cl+3]([O-])([O-])O.c1ccc(/N=c2\snc(-c3ccccc3)s2)cc1`, the GI50 in the assay on HCC 2998 was > 100 µM (inactive); in the assay on HL-60, > 100 µM (inactive); with NCI-H460, > 100 µM (inactive); in the assay with HCT-116, > 100 µM (inactive); in the assay on RPMI-8226, > 100 µM (inactive); in the assay with HCT-15, over 100 µM. Further, the GI50 in the assay on M14, in the assay on UO-31, in the assay on SK-MEL-28, in the assay with U-251, in the assay on HOP-62 and with SN12C was > 100 µM (inactive) in each case. For the same molecule, the GI50 in the assay on SK-MEL-2 and in the assay with CCRF-CEM was > 100 µM (inactive) throughout.

For `O=C(Cc1nc(-c2ccccc2)cc(=O)n1-c1ccccc1Cl)c1ccncc1`, the GI50 with HCC 2998 is > 100 µM (inactive); with HL-60 it was 9.1 µM (inactive); with NCI-H23, > 100 µM (inactive); in the assay on NCI-H460 it was > 100 µM (inactive); with HCT-116 it was > 100 µM (inactive); with HCT-15, over 100 µM. Also, the GI50 with M14, in the assay with UO-31, in the assay on SK-MEL-28, in the assay on U-251, with HOP-62 and with SN12C was > 100 µM (inactive) in each case. The GI50 with OVCAR-5, with SK-MEL-2 and with CCRF-CEM was > 100 µM (inactive) in each case.

Regarding `COC(=O)CCC1=NOC(CC2CC(CCC(=O)OC)=NO2)C1` (stereo not given), the GI50 with HCC 2998, in the assay with HL-60, in the assay with NCI-H23, in the assay on NCI-H460, in the assay on HCT-116 and with RPMI-8226 was > 100 µM (inactive) in each case. Also, the GI50 was over 100 µM with HCT-15; > 100 µM (inactive) in the assay on M14; > 100 µM (inactive) in the assay on UO-31; > 100 µM (inactive) with U-251; > 100 µM (inactive) with HOP-62; > 100 µM (inactive) with SN12C. Further, the GI50 with OVCAR-5, with SK-MEL-2 and with CCRF-CEM was > 100 µM (inactive) each time.

Regarding `COC(=O)c1c(O)ccc(O)c1C(C(C)=O)C(C)=O`, the GI50 in the assay with HCC 2998, in the assay with HL-60, with NCI-H23, in the assay with NCI-H460, in the assay on HCT-116 and with RPMI-8226 was > 100 µM (inactive) in each case. Besides, the GI50 in the assay on HCT-15 is over 100 µM; in the assay with M14, > 100 µM (inactive); in the assay with UO-31 it was > 100 µM (inactive); in the assay on SK-MEL-28, > 100 µM (inactive); in the assay on U-251, > 100 µM (inactive); in the assay with HOP-62 it was > 100 µM (inactive). For the same molecule, the GI50 in the assay with SN12C, with SK-MEL-2 and in the assay on CCRF-CEM was > 100 µM (inactive) each time.

As to `COc1ccc2nc3cc(Cl)ccc3c(SCC(=O)Nc3ccccc3-c3ccccc3NC(=O)CSc3c4ccc(Cl)cc4nc4ccc(OC)cc34)c2c1`, the GI50 in the assay on HCC 2998 is > 100 µM (inactive); with NCI-H23, > 100 µM (inactive); in the assay on NCI-H460 it was > 100 µM (inactive); in the assay on HCT-116 it was > 100 µM (inactive); in the assay on RPMI-8226 it was > 100 µM (inactive); in the assay on HCT-15, over 100 µM. Also, the GI50 in the assay on M14, in the assay on UO-31, in the assay on SK-MEL-28, with U-251, with HOP-62 and in the assay with SN12C was > 100 µM (inactive) throughout. For the same molecule, the GI50 with OVCAR-5, in the assay with SK-MEL-2 and in the assay with CCRF-CEM was > 100 µM (inactive) in each case.

Turning to `CCOC(=O)c1[nH]c(CN(C)Cc2[nH]c(C(=O)OCC)c(C)c2C(=O)OCc2ccccc2)c(C(=O)OCc2ccccc2)c1C`, the GI50 in the assay on HCC 2998 was 14.4 µM (inactive); with HL-60, 3.96 µM (inactive); with NCI-H23, 12.3 µM (inactive); in the assay on NCI-H460, 5.58 µM (inactive); with HCT-116 it was 7 µM (inactive); in the assay on HCT-15, 8.3 µM. For the same molecule, the GI50 in the assay on M14 was 4.99 µM (inactive); with UO-31, 4.09 µM (inactive); in the assay with SK-MEL-28 it was 16.9 µM (inactive); in the assay on U-251 it was 12.1 µM (inactive); in the assay on HOP-62, 13 µM (inactive); with SN12C, 6.19 µM (inactive). Besides, the GI50 in the assay with OVCAR-5 was 6.81 µM (inactive); with CCRF-CEM, > 100 µM (inactive).

For the molecule `COC(=O)C1C(C(=O)OC)C2C(=O)C3C(C(=O)OC)C(C(=O)OC)C3C(=O)C12` (stereo not given), the GI50 in the assay with HCC 2998, in the assay with HL-60, with NCI-H23, with NCI-H460, in the assay with HCT-116 and with SK-MEL-28 was > 100 µM (inactive) throughout. Also, the GI50 in the assay on U-251, in the assay with HOP-62, in the assay with SN12C, with OVCAR-5, with SK-MEL-2 and in the assay with CCRF-CEM was > 100 µM (inactive) in each case.

Consider `NC1C2(CCCCCC2)NC(=O)C12CCCCCC2` (stereo not given), for which the GI50 is > 100 µM (inactive) in the assay on HL-60; > 100 µM (inactive) in the assay with NCI-H23; > 100 µM (inactive) with NCI-H460; > 100 µM (inactive) in the assay with HCT-116; over 100 µM in the assay with HCT-15; > 100 µM (inactive) with M14. Also, the GI50 with UO-31, in the assay on SK-MEL-28, in the assay on U-251, in the assay with HOP-62, in the assay on SN12C and with OVCAR-5 was > 100 µM (inactive) each time. For the same molecule, the GI50 in the assay on SK-MEL-2 and in the assay on CCRF-CEM was > 100 µM (inactive) each time.

As to `C[N+]12c3ccccc3O[B-]1(c1ccccc1)Oc1ccccc12` (stereo not given), the GI50 is 14.5 µM (inactive) in the assay on HL-60; 52.8 µM (inactive) in the assay with NCI-H23; 38.5 µM (inactive) in the assay with HCT-116; 37.4 µM (inactive) with RPMI-8226; 15 µM (inactive) in the assay on M14; 35.1 µM (inactive) with SK-MEL-28. Also, the GI50 in the assay on U-251 was 16.6 µM (inactive); with HOP-62, 72.1 µM (inactive); in the assay on SN12C, 31.9 µM (inactive); with OVCAR-5, 77.4 µM (inactive); in the assay with CCRF-CEM it was 11.9 µM (inactive).

Take `C=C(C[N+](C)(C)C)N/N=C/c1oc(-c2ccc(OC)c(OC)c2)c(-c2ccc(OC)c(OC)c2)c1[N+](=O)[O-]`: the GI50 is 19.3 µM (inactive) in the assay on HCC 2998; 8.63 µM (inactive) in the assay on HL-60; 21 µM (inactive) in the assay with NCI-H23; 18.5 µM (inactive) in the assay with NCI-H460; 17 µM (inactive) in the assay on HCT-116; 14.6 µM (inactive) in the assay with RPMI-8226. The GI50 in the assay on HCT-15 was 17.9 µM; in the assay on M14, 22.1 µM (inactive); with UO-31, 18.9 µM (inactive); in the assay on SK-MEL-28, 18.3 µM (inactive); in the assay with U-251, 19.5 µM (inactive); in the assay on SN12C it was 16.7 µM (inactive). In addition, the figures for the GI50 in the assay with OVCAR-5, with SK-MEL-2 and in the assay on CCRF-CEM were 19.1 µM (inactive), 16.7 µM (inactive) and 13.6 µM (inactive), respectively.

On to `Cc1ccc(S(=O)(=O)Nc2cccc(C)c2C)cc1`, for which the GI50 with HCC 2998 is > 100 µM (inactive); in the assay with HL-60, 32.2 µM (inactive); in the assay on NCI-H23, 28.1 µM (inactive); with NCI-H460 it was 46.6 µM (inactive); in the assay with HCT-116, 49.1 µM (inactive); with RPMI-8226, > 100 µM (inactive). Also, the GI50 in the assay with HCT-15 was 41.1 µM; in the assay with M14, 37.9 µM (inactive); in the assay on UO-31, 30.8 µM (inactive); in the assay with SK-MEL-28, 30.4 µM (inactive); with U-251, 28.4 µM (inactive); in the assay with HOP-62 it was 86.3 µM (inactive). For the same molecule, the GI50 is 55.1 µM (inactive) in the assay on SN12C, 57.7 µM (inactive) with OVCAR-5 and 40.5 µM (inactive) in the assay with CCRF-CEM.
